Results from patent US20260092070A1, “INHIBITORS OF CANINE JANUS KINASE AND USES THEREOF” (ANIMOL DISCOVERY, INC., priority 2023, published 2026).
Read-outs that look alike come from different tables or passages of the source.

Experiments:
Human TYK-2 = target: T1, Human TYK-2 (Homo sapiens, UniProt P29597); test: JAK enzymatic assay (Eurofins KinaseProfiler/IC50Profiler, radiometric), TYK-2; assay type: biochemical; conditions: human TYK-2 enzyme, 9 concentrations; read-out: TYK2 affinity (IC50) category
T1 construct: purchased Eurofins Discovery (KinaseProfiler / IC50Profiler service)
T1 sequence (P29597 whole entry): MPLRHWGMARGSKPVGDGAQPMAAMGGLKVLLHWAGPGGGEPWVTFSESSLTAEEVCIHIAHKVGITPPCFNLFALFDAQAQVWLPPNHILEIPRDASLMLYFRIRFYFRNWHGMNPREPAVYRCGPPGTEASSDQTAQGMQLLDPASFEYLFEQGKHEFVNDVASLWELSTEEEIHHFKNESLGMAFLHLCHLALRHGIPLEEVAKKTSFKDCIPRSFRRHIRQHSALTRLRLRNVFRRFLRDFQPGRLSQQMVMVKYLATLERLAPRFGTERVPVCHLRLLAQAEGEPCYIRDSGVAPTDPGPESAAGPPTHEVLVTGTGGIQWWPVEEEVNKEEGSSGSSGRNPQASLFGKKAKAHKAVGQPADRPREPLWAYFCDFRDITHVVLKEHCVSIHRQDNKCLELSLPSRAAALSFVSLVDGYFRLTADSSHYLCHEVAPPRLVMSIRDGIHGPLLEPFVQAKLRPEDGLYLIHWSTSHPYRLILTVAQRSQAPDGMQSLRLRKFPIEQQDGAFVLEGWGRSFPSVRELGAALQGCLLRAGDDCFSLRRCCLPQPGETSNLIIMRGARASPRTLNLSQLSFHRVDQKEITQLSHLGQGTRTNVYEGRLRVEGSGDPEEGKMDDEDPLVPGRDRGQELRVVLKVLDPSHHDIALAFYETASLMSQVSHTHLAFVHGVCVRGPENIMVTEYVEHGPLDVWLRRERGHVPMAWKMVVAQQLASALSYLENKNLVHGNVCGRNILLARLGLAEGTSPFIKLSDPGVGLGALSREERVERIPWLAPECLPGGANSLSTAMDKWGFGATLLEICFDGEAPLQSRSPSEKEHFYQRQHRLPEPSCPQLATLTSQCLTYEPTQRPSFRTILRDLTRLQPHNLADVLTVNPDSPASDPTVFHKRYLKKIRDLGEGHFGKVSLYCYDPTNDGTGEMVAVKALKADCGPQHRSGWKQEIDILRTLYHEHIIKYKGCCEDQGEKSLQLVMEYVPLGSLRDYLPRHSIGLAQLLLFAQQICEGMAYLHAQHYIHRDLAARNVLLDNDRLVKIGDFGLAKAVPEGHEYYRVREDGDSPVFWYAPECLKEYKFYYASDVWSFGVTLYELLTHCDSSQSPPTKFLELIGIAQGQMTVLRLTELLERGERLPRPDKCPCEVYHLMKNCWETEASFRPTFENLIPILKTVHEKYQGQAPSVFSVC
Description: Human TYK-2 (Uniprot ID: P29597) was incubated with 8 mM MOPS pH 7.0, 0.2 mM EDTA, 250 μM […]

Human JAK-3 = target: T2, Human JAK-3 (Homo sapiens, UniProt P52333); test: JAK enzymatic assay (Eurofins KinaseProfiler/IC50Profiler, radiometric), JAK-3; assay type: biochemical; conditions: human JAK-3 enzyme, 9 concentrations; read-out: JAK3 affinity (IC50) category
T2 construct: purchased Eurofins Discovery (KinaseProfiler / IC50Profiler service)
T2 sequence (P52333 1-1124): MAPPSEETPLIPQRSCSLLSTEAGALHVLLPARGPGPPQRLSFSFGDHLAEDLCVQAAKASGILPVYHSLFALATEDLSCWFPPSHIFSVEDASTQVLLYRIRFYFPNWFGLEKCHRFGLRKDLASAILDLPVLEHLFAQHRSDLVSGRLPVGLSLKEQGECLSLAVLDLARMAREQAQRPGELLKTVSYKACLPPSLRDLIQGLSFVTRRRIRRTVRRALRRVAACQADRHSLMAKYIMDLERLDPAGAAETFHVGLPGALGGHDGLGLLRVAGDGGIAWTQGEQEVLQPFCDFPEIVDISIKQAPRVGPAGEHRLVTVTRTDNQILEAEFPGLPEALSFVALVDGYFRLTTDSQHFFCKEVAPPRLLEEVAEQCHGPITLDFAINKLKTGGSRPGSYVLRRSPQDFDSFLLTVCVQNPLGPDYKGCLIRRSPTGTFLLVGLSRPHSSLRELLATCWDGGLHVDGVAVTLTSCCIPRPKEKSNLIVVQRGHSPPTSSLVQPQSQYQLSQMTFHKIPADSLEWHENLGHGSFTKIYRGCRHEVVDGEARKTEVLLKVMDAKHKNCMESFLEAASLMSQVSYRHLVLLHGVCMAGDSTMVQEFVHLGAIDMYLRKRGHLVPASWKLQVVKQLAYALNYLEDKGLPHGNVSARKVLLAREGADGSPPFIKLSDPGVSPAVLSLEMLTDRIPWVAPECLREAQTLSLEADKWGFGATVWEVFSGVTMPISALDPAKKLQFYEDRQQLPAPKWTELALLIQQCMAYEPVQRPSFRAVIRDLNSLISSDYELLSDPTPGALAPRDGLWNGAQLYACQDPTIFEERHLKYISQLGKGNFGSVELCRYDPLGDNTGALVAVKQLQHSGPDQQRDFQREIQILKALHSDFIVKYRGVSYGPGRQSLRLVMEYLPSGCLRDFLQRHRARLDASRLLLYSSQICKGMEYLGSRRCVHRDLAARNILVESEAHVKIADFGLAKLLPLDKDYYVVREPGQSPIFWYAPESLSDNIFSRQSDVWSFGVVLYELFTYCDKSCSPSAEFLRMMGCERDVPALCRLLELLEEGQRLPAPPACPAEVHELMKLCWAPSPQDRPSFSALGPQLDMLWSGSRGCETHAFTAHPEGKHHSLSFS
Description: (§1) All enzyme assays were conducted according to Eurofins Discovery's KinaseProfiler™ and IC50Profiler™ services.
(SEQ ID NO: 3) peptide substrate, 10 mM magnesium acetate and [gamma-33P]-ATP (specific activity and concentration as required). The reaction was initiated by the addition of the Mg/ATP mix. After incubation for 40 minutes at room temperature, the reaction was stopped by the addition of phosphoric acid to a concentration of 0.5%. An aliquot of the reaction was then spotted onto a filter and washed four times for 4 minutes in 0.425% phosphoric acid and once with methanol prior to drying and scintillation counting.
(§2) Data was then imported into an internal application where each data point was expressed as % inhibition based on uninhibited and no enzyme controls.

Human JAK-2 = Human JAK-2 (Homo sapiens, UniProt O60674); test: JAK enzymatic assay (Eurofins KinaseProfiler/IC50Profiler, radiometric), JAK-2; assay type: biochemical; conditions: human JAK-2 enzyme, 9 concentrations; read-out: JAK2 affinity (IC50) category
Sequence of Human JAK-2 (O60674 whole entry): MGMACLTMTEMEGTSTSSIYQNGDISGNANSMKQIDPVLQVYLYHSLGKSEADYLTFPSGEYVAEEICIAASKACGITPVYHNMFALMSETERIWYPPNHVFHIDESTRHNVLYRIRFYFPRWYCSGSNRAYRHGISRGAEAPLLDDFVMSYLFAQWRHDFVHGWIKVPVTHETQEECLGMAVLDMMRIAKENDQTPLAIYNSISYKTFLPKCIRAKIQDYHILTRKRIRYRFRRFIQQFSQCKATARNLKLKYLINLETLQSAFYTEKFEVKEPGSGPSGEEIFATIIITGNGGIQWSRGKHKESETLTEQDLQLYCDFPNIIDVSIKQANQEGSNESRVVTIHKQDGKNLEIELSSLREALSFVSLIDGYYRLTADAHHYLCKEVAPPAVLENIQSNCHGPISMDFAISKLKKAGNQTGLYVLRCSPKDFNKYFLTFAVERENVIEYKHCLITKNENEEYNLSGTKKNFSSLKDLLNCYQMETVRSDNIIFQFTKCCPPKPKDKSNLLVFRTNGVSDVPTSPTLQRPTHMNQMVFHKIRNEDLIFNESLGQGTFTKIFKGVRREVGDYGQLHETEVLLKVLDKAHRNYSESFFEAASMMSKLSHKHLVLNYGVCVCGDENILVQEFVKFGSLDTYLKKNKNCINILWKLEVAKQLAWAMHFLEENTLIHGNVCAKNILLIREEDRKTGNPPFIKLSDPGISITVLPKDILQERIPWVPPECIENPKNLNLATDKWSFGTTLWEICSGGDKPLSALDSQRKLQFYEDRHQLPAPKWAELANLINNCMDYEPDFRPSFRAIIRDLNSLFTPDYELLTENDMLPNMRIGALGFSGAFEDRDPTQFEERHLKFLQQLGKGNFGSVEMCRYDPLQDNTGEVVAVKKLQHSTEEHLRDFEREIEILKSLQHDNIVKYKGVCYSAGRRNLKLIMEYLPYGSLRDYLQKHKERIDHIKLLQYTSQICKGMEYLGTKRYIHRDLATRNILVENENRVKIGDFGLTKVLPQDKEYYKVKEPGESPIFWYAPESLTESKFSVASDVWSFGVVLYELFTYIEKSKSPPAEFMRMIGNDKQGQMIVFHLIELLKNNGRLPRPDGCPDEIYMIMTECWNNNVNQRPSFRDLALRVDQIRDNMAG
Description: as §1
(SEQ ID NO: 2) peptide substrate, 10 mM magnesium acetate and [gamma-33P]-ATP (specific activity and concentration as required). The reaction was initiated by the addition of the Mg/ATP mix. After incubation for 40 minutes at room temperature, the reaction was stopped by the addition of phosphoric acid to a concentration of 0.5%. An aliquot of the reaction was then spotted onto a filter and washed four times for 4 minutes in 0.425% phosphoric acid and once with methanol prior to drying and scintillation counting.
as §2

JAK-1 [1] = target: T3, JAK-1 (Homo sapiens, UniProt P23458); test: JAK enzymatic assay (Eurofins KinaseProfiler/IC50Profiler, radiometric), JAK-1; conditions: for JAK1/JAK2 selectivity: selectivity IC50 ratio for JAK1 versus JAK2, human enzymes
Target sequence in this assay (P23458 whole entry): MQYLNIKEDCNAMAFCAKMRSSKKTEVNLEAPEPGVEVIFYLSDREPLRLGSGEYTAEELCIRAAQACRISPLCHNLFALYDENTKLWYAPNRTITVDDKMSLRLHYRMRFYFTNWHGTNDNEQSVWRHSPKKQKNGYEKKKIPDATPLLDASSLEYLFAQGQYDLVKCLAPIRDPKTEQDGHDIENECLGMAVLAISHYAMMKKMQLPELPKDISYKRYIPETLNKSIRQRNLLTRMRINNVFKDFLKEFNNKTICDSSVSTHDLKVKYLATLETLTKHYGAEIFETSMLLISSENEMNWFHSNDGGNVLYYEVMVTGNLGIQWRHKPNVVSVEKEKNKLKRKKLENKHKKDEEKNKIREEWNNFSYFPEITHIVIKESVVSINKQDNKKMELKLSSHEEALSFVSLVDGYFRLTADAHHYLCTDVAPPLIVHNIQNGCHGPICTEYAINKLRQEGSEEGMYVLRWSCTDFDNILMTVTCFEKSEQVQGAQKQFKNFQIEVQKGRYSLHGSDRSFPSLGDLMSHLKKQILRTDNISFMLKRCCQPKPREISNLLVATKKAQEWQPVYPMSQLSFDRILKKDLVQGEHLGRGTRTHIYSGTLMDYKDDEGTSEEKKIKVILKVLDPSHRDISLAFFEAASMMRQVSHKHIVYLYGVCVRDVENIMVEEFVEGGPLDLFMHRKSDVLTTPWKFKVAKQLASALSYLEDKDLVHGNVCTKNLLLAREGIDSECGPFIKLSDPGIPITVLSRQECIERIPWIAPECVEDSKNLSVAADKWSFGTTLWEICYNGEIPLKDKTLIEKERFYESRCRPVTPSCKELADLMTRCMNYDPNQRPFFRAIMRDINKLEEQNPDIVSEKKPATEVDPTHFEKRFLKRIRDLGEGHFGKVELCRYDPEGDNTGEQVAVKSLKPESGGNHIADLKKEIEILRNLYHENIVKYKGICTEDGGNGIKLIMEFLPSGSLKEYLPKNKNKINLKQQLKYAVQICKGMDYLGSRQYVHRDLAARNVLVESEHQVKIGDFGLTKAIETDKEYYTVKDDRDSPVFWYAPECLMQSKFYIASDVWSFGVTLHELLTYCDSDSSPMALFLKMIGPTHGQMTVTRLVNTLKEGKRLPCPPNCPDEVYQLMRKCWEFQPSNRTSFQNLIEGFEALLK
Description: as §1
(SEQ ID NO.: 1) peptide substrate, 10 mM magnesium acetate and [gamma-33P]-ATP (specific activity and concentration as required). The reaction was initiated by the addition of the Mg/ATP mix. After incubation for 40 minutes at room temperature, the reaction was stopped by the addition of phosphoric acid to a concentration of 0.5%. An aliquot of the reaction was then spotted onto a filter and washed four times for 4 minutes in 0.425% phosphoric acid and once with methanol prior to drying and scintillation counting. A known inhibitor, Staurosporine, was used as a positive control for the assay.
Data was then imported into an internal application where each data point was expressed as % inhibition based on uninhibited and no enzyme controls. […] Inhibition values for the JAK enzymes (IC50 values) for each compound were stratified into four groups.

[2] = tested on: JAK1-dependent cytokines (IL-2, IL-4, IL-6, IL-13, IL-31); conditions: IL-2, IL-4, IL-6, IL-13 and IL-31; Gonzales et al., 2014; read-out: IC50 for inhibiting the function of JAK1-dependent cytokines; cited from earlier work
JAK-1 [3] = target: T3, JAK-1; conditions: Gonzales et al., 2014; cited from earlier work
Target sequence in this assay (P23458 whole entry, species assumed): as the sequence (P23458 whole entry) above

cJAK-1 = test: Selectivity of oclacitinib among canine JAK subtypes; assay type: biochemical

SMILES | IC50 (Human TYK-2) | IC50 (Human JAK-3) | IC50 (Human JAK-2) | IC50 (JAK-1 [1]) | JAK1/JAK2 selectivity (JAK-1 [1]) | IC50 [2] | IC50 (JAK-1 [3]) | selectivity toward cJAK-2, cJAK-3, and cJAK-4 relative to cJAK-1 (cJAK-1)
CC(C)(C)NS(=O)(=O)c1ccc(NC(=O)CN2CCN(c3ncnc4[nH]ccc34)CC2)cc1 [Compound 2, 2-(4-(7H-pyrrolo[2,3-d]pyrimidin-4-yl)piperazin-1-yl)-N-(4-(N-(tert-butyl)sulfamoyl)phenyl)acetamide] | > 1000 nM | > 1000 nM | > 1000 nM | < 250 nM | 25 | – | – | –
O=C(CN1CCN(c2ncnc3[nH]ccc23)CC1)Nc1ccc(S(=O)(=O)N2CCC2)cc1 [Compound 4, 2-(4-(7H-pyrrolo[2,3-d]pyrimidin-4-yl)piperazin-1-yl)-N-(4-(azetidin-1-ylsulfonyl)phenyl) acetamide] | > 1000 nM | > 1000 nM | > 1000 nM | 250 to 500 nM | 24 | – | – | –
CN(C)S(=O)(=O)c1ccc(NC(=O)CN2CCN(c3ncnc4[nH]ccc34)CC2)cc1F [Compound 5, 2-(4-(7H-pyrrolo[2,3-d]pyrimidin-4-yl)piperazin-1-yl)-N-(4-(N,N-dimethylsulfamoyl)-3-fluorophenyl)acetamide] | > 1000 nM | > 1000 nM | > 1000 nM | 250 to 500 nM | – | – | – | –
O=C(CN1CCN(c2ncnc3[nH]ccc23)CC1)Nc1ccc(S(=O)(=O)NC2CC2)cc1 [Compound 7, 2-(4-(7H-pyrrolo[2,3-d]pyrimidin-4-yl)piperazin-1-yl)-N-(4-(N-cyclopropylsulfamoyl)phenyl)acetamide] | > 1000 nM | > 1000 nM | 500 to 1000 nM | < 250 nM | 13 | – | – | –
CNS(=O)(=O)c1ccc(NC(=O)CN2CCN(c3ncnc4[nH]ccc34)CC2)cc1 [Compound 8, 2-(4-(7H-pyrrolo[2,3-d]pyrimidin-4-yl)piperazin-1-yl)-N-(4-(N-methylsulfamoyl)phenyl)acetamide] | > 1000 nM | 500 to 1000 nM | 500 to 1000 nM | < 250 nM | 7 | – | – | –
CNS(=O)(=O)c1ccc(NC(=O)CN2CCN(c3ncnc4[nH]ccc34)CC2)cc1F [Compound 9, 2-(4-(7H-pyrrolo[2,3-d]pyrimidin-4-yl)piperazin-1-yl)-N-(3-fluoro-4-(N-methylsulfamoyl)phenyl)acetamide] | 500 to 1000 nM | 500 to 1000 nM | 500 to 1000 nM | < 250 nM | 12 | – | – | –
COCCN(C)S(=O)(=O)c1ccc(NC(=O)CN2CCN(c3ncnc4[nH]ccc34)CC2)cc1 [Compound 10, 2-(4-(7H-pyrrolo[2,3-d]pyrimidin-4-yl)piperazin-1-yl)-N-(4-(N-(2-methoxyethyl)-N-methylsulfamoyl)phenyl)acetamide] | > 1000 nM | > 1000 nM | > 1000 nM | 250 to 500 nM | 15 | – | – | –
CCCCNS(=O)(=O)c1ccc(NC(=O)CN2CCN(c3ncnc4[nH]ccc34)CC2)cc1 [Compound 11, 2-(4-(7H-pyrrolo[2,3-d]pyrimidin-4-yl)piperazin-1-yl)-N-(4-(N-butylsulfamoyl)phenyl)acetamide] | > 1000 nM | 500 to 1000 nM | > 1000 nM | < 250 nM | 9 | – | – | –
CCCNS(=O)(=O)c1ccc(NC(=O)CN2CCN(c3ncnc4[nH]ccc34)CC2)cc1 [Compound 12, 2-(4-(7H-pyrrolo[2,3-d]pyrimidin-4-yl)piperazin-1-yl)-N-(4-(N-propylsulfamoyl)phenyl)acetamide] | > 1000 nM | 500 to 1000 nM | 500 to 1000 nM | < 250 nM | 4 | – | – | –
CCNS(=O)(=O)c1ccc(NC(=O)CN2CCN(c3ncnc4[nH]ccc34)CC2)cc1 [Compound 13, 2-(4-(7H-pyrrolo[2,3-d]pyrimidin-4-yl)piperazin-1-yl)-N-(4-(N-ethylsulfamoyl)phenyl)acetamide] | > 1000 nM | > 1000 nM | > 1000 nM | < 250 nM | 13 | – | – | –
CNS(=O)(=O)c1ccc(N(C)C(=O)CN2CCN(c3ncnc4[nH]ccc34)CC2)cc1 [Compound 14, 2-(4-(7H-pyrrolo[2,3-d]pyrimidin-4-yl)piperazin-1-yl)-N-methyl-N-(4-(N-methylsulfamoyl)phenyl)acetamide] | > 1000 nM | > 1000 nM | > 1000 nM | 250 to 500 nM | 17 | – | – | –
CC(C)NS(=O)(=O)c1ccc(NC(=O)C(C)N2CCN(c3ncnc4[nH]ccc34)CC2)cc1 (stereo not drawn) [Compound 17, 2-(4-(7H-pyrrolo[2,3-d]pyrimidin-4-yl)piperazin-1-yl)-N-(4-(N-isopropylsulfamoyl)phenyl)propenamide] | > 1000 nM | > 1000 nM | > 1000 nM | 250 to 500 nM | 7 | – | – | –
CC(C)NS(=O)(=O)c1ccc(NC(=O)[C@@H](C)N2CCN(c3ncnc4[nH]ccc34)CC2)cc1 [Compound 18, (R)-2-(4-(7H-pyrrolo[2,3-d]pyrimidin-4-yl)piperazin-1-yl)-N-(4-(N-isopropylsulfamoyl)phenyl)propanamide] | > 1000 nM | 500 to 1000 nM | < 250 nM | 250 to 500 nM | 4 | – | – | –
CC(C(=O)Nc1ccc(S(=O)(=O)N2CCCCC2)cc1)N1CCN(c2ncnc3[nH]ccc23)CC1 (stereo not drawn) [Compound 20, 2-(4-(7H-pyrrolo[2,3-d]pyrimidin-4-yl)piperazin-1-yl)-N-(4-(piperidin-1-ylsulfonyl)phenyl)propenamide] | 500 to 1000 nM | > 1000 nM | > 1000 nM | 500 to 1000 nM | 2 | – | – | –
CNS(=O)(=O)C[C@H]1CC[C@H](N(C)c2ncnc3[nH]ccc23)CC1.O=C(O)/C=C\C(=O)O [Oclacitinib, N-methyl[trans-4-(methyl-7H-pyrrolo[2,3-d]pyrimidin-4-ylamino)cyclohexyl]methanesulfonamide (2Z)-2-butenedioate] | – | – | – | – | – | 36 to 249 nM | 10 nM | relatively low
